{
  "source": "patent US12103941B2",
  "about": "“Radiation-activatable platinum complex, its preparation and therapeutic use” (City University of Hong Kong, priority 2022, dated 2024)",
  "key": {"[1]": {"tested_on": "HeLa cells", "experiment": "Cytotoxicity, MTT assay, HeLa cells", "type": "cell-based, human", "conditions": "IC50 without vs with radiation", "method": "(§1) The biological activity of complex 1 was evaluated. Human breast carcinoma MCF-7 cells, human cervix carcinoma HeLa cells, mammary breast carcinoma 4T1 cells, human lung carcinoma A549 cells, and cisplatin-resistant A549cisR cells were cultured in DMEM containing 10% FBS and 100 IU mL^−1 penicillin/streptomycin. Human ovarian carcinoma A2780 and A2780cisR cells were cultured in RPMI-1640 containing 10% FBS, 2 mM L-glutamine, and 100 IU mL^−1 penicillin/streptomycin. Human lung fibroblast MRC-5 cells were cultured in MEM containing 10% FBS, 1% NEAA, 1% L-Glutamine, 1% sodium pyruvate, and 100 IU mL^−1 penicillin/streptomycin. In every two passages of A2780cisR and A549cisR cells, 5 μM of cisplatin was added to maintain the platinum resistance. All the cells were cultured in humidified incubators at 37° C. with 5% CO2. Cell counting was performed with a hemocytometer. Cytotoxicity test was performed by exposing the cancer cells with complex 1. The viability of cancer cells exposed was evaluated by means of MTT assay. Specifically, the cells were first pre-seeded in 6-well plates until the confluency reached 80%. Then, the medium was removed and replaced with fresh medium containing different concentrations of complex 1 with 0.5% DMF (0, 2.5, 5, 12.5, 25, or 40 μM). After 30 min, the medium was aspirated, the well was washed with PBS for three times. […]"}, "[2]": {"experiment": "Stability of complex 1 in the dark (HPLC)", "type": "physicochemical", "conditions": "10 μM, PBS pH 7.4, RPMI-1640 culture medium and A2780 cell lysate, no radiation", "method": "The stability of complex 1, i.e., complex 1 in phosphate buffer saline (PBS) buffer, cell culture medium such as RPMI-1640, and cell lysate in the dark (i.e., in the absence of radiation) was determined. To determine the stability of complex 1 in PBS, complex 1 (10 μM) was dissolved in PBS buffer (pH 7.4, 1% DMF) and incubated at 310 K in the dark. At 24 h, the sample was analyzed by HPLC to determine the percentage of Pt(IV) remained. To determine the stability of complex 1 in complete RPMI-1640 culture medium (containing 10% FBS, 2 mM L-Glutamine, and 100 IU mL^−1 penicillin/streptomycin) or cell lysate (from A2780 cells by 1% triton X-100 lysis, protein concentration adjusted to 1.5 mg mL^−1), complex 1 was dissolved in these two solutions, respectively (with 1% DMF). At determined time intervals, 50 μL of samples were taken out and diluted with 200 μL MeOH with subsequent centrifugation at 14,000×g to remove proteins, and then the supernatant was analyzed by HPLC."}, "[3]": {"tested_on": "Human lung fibroblast MRC-5 cells", "experiment": "Cell viability of normal MRC-5 cells (FIG. 10)", "type": "cell-based", "conditions": "absence of ultrasound, 24 h", "method": "as §1"}, "[4]": {"experiment": "Sono-activation (sono-induced reduction) of complex 1 in PBS, HPLC", "type": "physicochemical", "conditions": "4 W", "method": "The sono-activation property of complex 1 was investigated. A PBS solution (with 1% DMF) containing 10 μM complex 1 with or without 5 mM sodium ascorbate (i.e. the sample), was continuously treated with ultrasound (1.75 MHz, 4 W) for a total period of time of 60 min. The sample temperature was monitored with an FLIR thermographic camera and maintained at 37° C. throughout the experiment. […] (FIGS. 6C to 6E), indicating the reduction of Pt(IV) to Pt(II) along with the dissociation of the axial ligand 1 and hydroxide ligand upon sono-activation (i.e. complex 1 undergoes a sono-induced reduction)."}, "[5]": {"experiment": "Photo-activation of complex 1 by 808 nm laser, HPLC", "type": "physicochemical", "conditions": "10 μM in PBS (1% DMF), 5 mM ascorbate, laser 808 nm, 3.3 mW/cm^2, 15 min", "method": "The inventors have further investigated if complex 1 could be activated by other types of radiation such as EM radiation, in particular light such as infrared light. A PBS buffer solution (with 1% DMF) containing 10 μM complex 1 with 5 mM ascorbate in a quartz cuvette was irradiated with a laser (808 nm, 3.3 mW/cm^2) for 15 min under stirring. The sample was analysed by HPLC. […] In view of the similar profiles, the inventors believe that complex 1 would also release singlet oxygen upon photo-activation along with the aforementioned photo-induced reduction."}, "[6]": {"tested_on": "different cancer cell lines (MCF-7, HeLa, 4T1, A549, A549cisR, A2780, A2780cisR)", "experiment": "Cytotoxicity, MTT assay, all tested cancer cell lines (FIG. 9)", "type": "cell-based", "method": "as §1"}},
  "data": [
    {"smiles": "CCCN1/C(=C/C=C2\\CCCC(/C=C/C3=[N+](CCC)c4ccccc4C3(C)C)=C2Oc2ccc(CCC(=O)[O][Pt]3([NH2])([NH2])([OH])[O]C(=O)C4(CCC4)C(=O)[O]3)cc2)C(C)(C)c2ccccc21", "note": "[complex 1, cyaninplatin]", "values": [
      {"measurement": "enhancement of cytotoxicity upon exposure to radiation", "setting": "[1]", "result": "about 6 times"},
      {"measurement": "time complex is stable in the dark (single HPLC peak)", "setting": "[2]", "result": "≥ 6", "unit": "h"},
      {"measurement": "toxicity to normal MRC-5 cells", "setting": "[3]", "result": "non-toxic"},
      {"measurement": "complex 1 reduced (to Pt(II)) after sono-activation", "setting": "[4]; 10 μM in PBS (1% DMF), 5 mM ascorbate, ultrasound 1.75 MHz, about 60 min, 37° C.", "result": "about 95%"},
      {"measurement": "conditions required for sono-induced reduction", "setting": "[4]; 10 μM in PBS, with or without 5 mM ascorbate, with or without ultrasound 1.75 MHz", "result": "only occurs under the condition where both ascorbate and ultrasound are present"},
      {"measurement": "photo-activation / photo-induced reduction to Pt(II) complex", "setting": "[5]", "result": "can be photo-activated"},
      {"measurement": "activity on tested cells upon ultrasound treatment", "setting": "[6]; ultrasound 3.5 W, 15 min", "result": "very active"},
      {"measurement": "toxicity to tested cells without ultrasound treatment", "setting": "[6]; without the ultrasound treatment", "result": "generally non-toxic"}
    ]}
  ]
}
